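Abbreviation: GI50, concentration required for 50% inhibition of growth. TGI: total growth inhibition.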
Tests used:
Assay in all cases: NCI tumour cell line growth inhibition, 384-well format
SF-268 CNS = system: SF-268 CNS
MDA-MB-435 melanoma = system: MDA-MB-435 melanoma
HCT-15 colon = system: HCT-15 colon
SNB-19 CNS = system: SNB-19 CNS
PC-3 prostate = system: PC-3 prostate
HS 578T breast = system: HS 578T breast
T-47D breast = system: T-47D breast
HOP-92 NSCLC = system: HOP-92 NSCLC
MDA-MB-468 breast = system: MDA-MB-468 breast
K-562 leukemia = system: K-562 leukemia
NCI-H460 NSCLC = system: NCI-H460 NSCLC
A498 renal = system: A498 renal
OVCAR-3 ovarian = system: OVCAR-3 ovarian
MOLT-4 leukemia = system: MOLT-4 leukemia
SK-MEL-5 melanoma = system: SK-MEL-5 melanoma
RPMI-8226 leukemia = system: RPMI-8226 leukemia
ACHN renal = system: ACHN renal
LOX IMVI melanoma = system: LOX IMVI melanoma
IGROV1 ovarian = system: IGROV1 ovarian
NCI-H322M lung = system: NCI-H322M lung
MCF7 breast = system: MCF7 breast
RXF 393 renal = system: RXF 393 renal
HCC-2998 colon = system: HCC-2998 colon
NCI-H23 lung = system: NCI-H23 lung
HCT-116 colon = system: HCT-116 colon
DU-145 prostate = system: DU-145 prostate
UO-31 renal = system: UO-31 renal

COc1cc(OC)cc(N2CCN(C(=O)Nc3nc4cc(F)ccc4nc3OC)CC2)c1
GI50 (SF-268 CNS): 30.4 nM
TGI (SF-268 CNS): 415 nM
GI50 (MDA-MB-435 melanoma): < 10 nM
TGI (MDA-MB-435 melanoma): 21.2 nM
GI50 (HCT-15 colon): 22.4 nM
TGI (HCT-15 colon): 1180 nM
GI50 (SNB-19 CNS): 36.3 nM
TGI (SNB-19 CNS): 12800 nM
GI50 (PC-3 prostate): 25.4 nM
TGI (PC-3 prostate): 15200 nM
GI50 (HS 578T breast): 17 nM
TGI (HS 578T breast): 35.6 nM
GI50 (T-47D breast): 55.4 nM
TGI (T-47D breast): 19600 nM
GI50 (HOP-92 NSCLC): 48.3 nM
TGI (HOP-92 NSCLC): 15600 nM
GI50 (MDA-MB-468 breast): 16.1 nM
TGI (MDA-MB-468 breast): 32.1 nM
GI50 (K-562 leukemia): 17.4 nM
TGI (K-562 leukemia): 43.3 nM
GI50 (NCI-H460 NSCLC): 21.1 nM
TGI (NCI-H460 NSCLC): 48.7 nM
GI50 (A498 renal): < 10 nM
TGI (A498 renal): 96.6 nM
GI50 (OVCAR-3 ovarian): 12.1 nM
TGI (OVCAR-3 ovarian): 31.4 nM
GI50 (MOLT-4 leukemia): 18.2 nM
TGI (MOLT-4 leukemia): 32.8 nM
GI50 (SK-MEL-5 melanoma): 13.1 nM
TGI (SK-MEL-5 melanoma): 45.3 nM
GI50 (RPMI-8226 leukemia): 17 nM
TGI (RPMI-8226 leukemia): 31.8 nM
GI50 (ACHN renal): 65.7 nM
TGI (ACHN renal): 20200 nM
GI50 (LOX IMVI melanoma): 39.8 nM
TGI (LOX IMVI melanoma): 380 nM
GI50 (IGROV1 ovarian): 42.5 nM
TGI (IGROV1 ovarian): 15000 nM
GI50 (NCI-H322M lung): 64 nM
TGI (NCI-H322M lung): 37600 nM
GI50 (MCF7 breast): 26.2 nM
TGI (MCF7 breast): 5570 nM
GI50 (RXF 393 renal): < 10 nM
TGI (RXF 393 renal): 21.9 nM
GI50 (HCC-2998 colon): 20.7 nM
TGI (HCC-2998 colon): 76.9 nM
GI50 (NCI-H23 lung): 20.7 nM
TGI (NCI-H23 lung): 55.4 nM
GI50 (HCT-116 colon): 31.2 nM
TGI (HCT-116 colon): 151 nM
GI50 (DU-145 prostate): 34.7 nM
TGI (DU-145 prostate): 249 nM
GI50 (UO-31 renal): 51.3 nM
TGI (UO-31 renal): 18300 nM
